Source: US20110171174A1, “Synergistic Combinations of a Macrocyclic Inhibitor of HCV and a Nucleoside” (ORTHO-MCNEIL-JANSSEN PHARMACEUTICALS, INC., priority 2008, published 2011)

System: HCV replicon (Huh-7 luc/neo cells, NS3-NS5B regions of HCV type 1b)
Assay: HCV replicon assay (Huh-Luc cells, luciferase read-out)
Type: cell-based
Conditions: Hepatitis C virus, Huh-7, 72 h, three days incubation, luciferase activity, read-out: average EC50 value in the HCV replicon test
Excerpt: The in vitro antiviral activity against HCV of the compound of formula I or of formula II can be tested in a cellular HCV replicon system based on Lohmann et al. (1999) Science 285:110-113, with the further modifications described by Krieger et al. (2001) Journal of Virology 75: 4614-4624 (incorporated herein by reference), which is further exemplified in the examples section. This model, while not a complete infection model for HCV, is widely accepted as the most robust and efficient model of autonomous HCV RNA replication currently available. The in vitro antiviral activity against HCV can also be tested by enzymatic tests.
The compounds of formula I were examined for activity in the inhibition of HCV RNA replication in a cellular assay. […] The cellular assay was based on a bicistronic expression construct, as described by Lohmann et al. (1999) Science vol. […]
The replicon cells were plated in 384 well plates in the presence of the test and control compounds which were added in various concentrations. Following an incubation of three days, HCV replication was measured by assaying luciferase activity (using standard luciferase assay substrates and reagents, and a Perkin Elmer ViewLux™ ultraHTS microplate imager). […] The inhibitory activity of the compound was monitored on the Huh-Luc cells, enabling a dose-response curve for each test compound. […]

| Structure (SMILES) | EC50 [nM] |
| --- | --- |
| C[C@@H]1[C@H](n2ccc(N)nc2=O)O[C@@](CO)(N=[N+]=[N-])[C@H]1O [compound II, 4-amino-1-((2R,3 S,4S,5R)-5-azido-4-hydroxy-5-hydroxymethyl-3-methyltetrahydro-furan-2-yl)-1H-pyrimidin-2-one] | 5000 |
| COc1ccc2c(O[C@@H]3C[C@H]4C(=O)N[C@]5(C(=O)NS(=O)(=O)C6CC6)C[C@H]5C=CCCCCN(C)C(=O)[C@@H]4C3)cc(-c3nc(C(C)C)cs3)nc2c1C (stereo in doubt) [compound I, (1R,4R,6S,15R,17R)-cis-N-[17-[2-(4-isopropylthiazole-2-yl)-7-methoxy-8-methyl-quinolin-4-yloxy]-13-methyl-2,14-dioxo-3,13-diazatricyclo[13.3.0.0^4,6]octadec-7-ene-4-carbonyl](cyclopropyl)sulfonamide] | 8 |
